# Data: patent US7388017B2, “Inhibitors of serine proteases, particularly hepatitis C virus NS3 protease” (Vertex Pharmaceuticals Incorporated, priority 1996, dated 2008)
# Starred links: 1 amine or outer side, 2 acyl side, 3 side chain; linkers in the order of their positions; H or OH if unused. Non-standard residues stand in square brackets, D forms with d. Residues, ends and D or L forms follow the SMILES beside them. Groups on a side chain read outwards from the residue. *: point of attachment. CH2(1-naphthyl) = c1ccc2c(C*)cccc2c1; Benzyl(3,4-Cl2) = Clc1ccc(C*)cc1Cl; Pyrazinecarbonyl = O=C(c1cnccn1)*; NH(3-Cl-phenyl) = Clc1cccc(N*)c1; X26 = Clc1ccc(-c2ncc(C*)s2)cc1; X35 = Cc1noc(C)c1-c1nc(C*)no1; X36 = c1ccc(-c2ccc(C*)cc2)cc1; Hyp = O=C(O)[CH]1C[CH](O)CN1; X25 = c1ccc(-c2nc(C*)no2)cc1; X5 = c1ccc(Oc2cccc(C*)c2)cc1; X11 = c1ccc(-c2ccccc2C*)cc1; X2 = COc1ccccc1-c1nc(C*)no1; X21 = FC(F)(F)Oc1cccc(C*)c1; X27 = Fc1cc2c(c(C*)c1)OCOC2; X7 = O=C(c1ccc(Cl)c(Cl)c1)*; X20 = FC(F)(F)c1cccc(C*)c1; X24 = FC(F)(F)c1ccc(C*)cc1; X4 = FC(F)(F)Oc1ccc(C*)cc1; Isovaleryl = CC(C)CC(=O)*; X15 = Clc1cc2c(cc1C*)OCO2; X31 = Clc1ccc2scc(C*)c2c1; X40 = CC(C)(C)c1nc(C*)no1; X10 = c1ccc2cc(C*)ccc2c1; X32 = Clc1ccc(N*)c(Cl)c1; X6 = Nc1c(Cl)cc(N*)cc1Cl; X42 = Clc1cccc(N*)c1Cl; Abu = CC[CH](N)C(=O)O; X22 = N#Cc1cccc(C*)c1; X33 = N#Cc1ccc(C*)cc1; CO = O=C([*:1])[*:2]; X29 = Fc1ccc(C*)cc1F; Bz = O=C(c1ccccc1)*; X1 = Cc1noc(C)c1C*
# Molecular target: T1, HCV NS3 protease (Hepatitis C virus genotype 1a, UniProt P27958)
# T1 construct: more particularly HCV NS3 proteases
# T1 sequence (P27958 1027-1208): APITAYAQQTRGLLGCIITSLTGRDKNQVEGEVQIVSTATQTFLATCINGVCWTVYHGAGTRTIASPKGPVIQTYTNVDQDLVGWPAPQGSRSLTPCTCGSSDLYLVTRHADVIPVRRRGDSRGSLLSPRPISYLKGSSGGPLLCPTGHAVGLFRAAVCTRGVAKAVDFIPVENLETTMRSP
# Assay: Enzyme inhibition of HCV NS3 serine protease (cleavage of peptide substrate / EDVV AbuC-p-nitroanilide, with or without NS4A)
# Type: biochemical
# Conditions: Enzyme inhibition data; Ki from rate vs [inhibitor] plots, Morrison tight binding competitive inhibition fit; 30 C, pH 7.8; read-out: Ki
# Method: Cleavage reactions were quenched by the addition of an equal volume of a mixture of 10% TFA:acetonitrile (1:1) and activity was assessed on a reversed phase HPLC column (Rainin C18 Microsorb-MV, […], 4.6×250 mm; 0-50% acetonitrile, 0.1% TFA@ 3.33% min) using a Hewlett Packard 1050 instrument with auto-injection and diode array detection at 210 nm and 280 nm (where appropriate). Peptide elution fragments were collected and identified by mass spectrometry and N-terminal sequence analysis. Fragment identity and concentration was further verified by authentic, synthesized products. Initial rates of cleavage were determined at <20% substrate conversion and catalytic parameters were determined assuming Michaelis-Menten kinetics using the MultiFit program (Day Computing, Cambridge, Mass.).
# Spectrophotometric assays were run in a 96-well microtiter plate at 30 C, using a SpectraMax 250 reader (Molecular Devices, Sunnyvale, Calif.) with kinetic capability. Cleavage of EDVV AbuC-p-nitroanilide (5A-pNA) substrate was performed with or without […] in the same buffer used for HPLC assays at 30 C, and pNA release was monitored at 405 nm. The extinction-coefficient of p-nitroaniline is independent of pH at values of 5.5. and above [Tuppy, H., et al., Hoppe-Seyler's Z. Physiol. Chem., 329, pp. 278-288 (1962)]; Raybuck and Luong, unpublished observations).
# Kinetic constants for the rapid equilibrium ordered bisubstrate reaction were determined from rate vs [4A], [EDVV AbuC-pNA] data by non-linear least squares fitting to equation 1 [Morrison, J. F. Biochim. Biophys. Acta, 185, pp. 269-286 (1969)] as described in the text. Kii and Kis values for peptidyl inhibitors were determined from rate vs [inhibitor], [substrate] data and fitting to the equation for mixed inhibition: rate=Vmax[S]/{Km(1+[I]/Kis)+[S](1+[I]/Kii)} The commercial program KinetAsyst (StateCollege, Pa.) was used for both procedures. Ki values were calculated from rate vs [inhibitor] plots by a nonlinear least squares fit of the data to the equation of Morrison for tight binding competitive inhibition [Morrison, J. F. Biochim. Biophys. Acta, 185, pp. 269-286 (1969)]. The KineTic program (BioKin Ltd) was used for this procedure.
# Ki values are expressed in μM. Category “A” indicates <1 μM inhibition; category “B” indicates 1-100 μM inhibition; category “C” indicates >100 μM.
row,SMILES,Ki [µM]
1,CCC(C=O)NC(=O)C1CC(OCc2cccc(Oc3ccccc3)c2)CN1C(=O)C(NC(=O)C(NC(=O)c1cnccn1)C(C)C)C(C)C (centres unmarked) [Compound 1] (Pyrazinecarbonyl-VV[Hyp](X5)[Abu]-aldehyde; configuration not given here),1 to 100
2,CCC(C=O)NC(=O)C1CC(OCc2ccc(-c3ccccc3)cc2)CN1C(=O)C(NC(=O)C(NC(=O)c1cnccn1)C(C)C)C(C)C (centres unmarked) [Compound 2] (Pyrazinecarbonyl-VV[Hyp](X36)[Abu]-aldehyde; configuration not given here),1 to 100
3,CCC(C=O)NC(=O)C1CC(OCc2noc(-c3ccccc3)n2)CN1C(=O)C(NC(=O)C(NC(=O)c1cnccn1)C(C)C)C(C)C (centres unmarked) [Compound 3] (Pyrazinecarbonyl-VV[Hyp](X25)[Abu]-aldehyde; configuration not given here),1 to 100
4,CCC(C=O)NC(=O)C1CC(OCc2noc(-c3c(C)noc3C)n2)CN1C(=O)C(NC(=O)C(NC(=O)c1cnccn1)C(C)C)C(C)C (centres unmarked) [Compound 5] (Pyrazinecarbonyl-VV[Hyp](X35)[Abu]-aldehyde; configuration not given here),1 to 100
5,CCC(C=O)NC(=O)C1CC(OCc2noc(C(C)(C)C)n2)CN1C(=O)C(NC(=O)C(NC(=O)c1cnccn1)C(C)C)C(C)C (centres unmarked) [Compound 6] (Pyrazinecarbonyl-VV[Hyp](X40)[Abu]-aldehyde; configuration not given here),1 to 100
6,CCC(C=O)NC(=O)C1CC(OCc2cc(F)cc3c2OCOC3)CN1C(=O)C(NC(=O)C(NC(=O)c1cnccn1)C(C)C)C(C)C (centres unmarked) [Compound 8] (Pyrazinecarbonyl-VV[Hyp](X27)[Abu]-aldehyde; configuration not given here),1 to 100
7,CCC(C=O)NC(=O)C1CC(OCc2cccc(OC(F)(F)F)c2)CN1C(=O)C(NC(=O)C(NC(=O)c1cnccn1)C(C)C)C(C)C (centres unmarked) [Compound 9] (Pyrazinecarbonyl-VV[Hyp](X21)[Abu]-aldehyde; configuration not given here),1 to 100
8,"CCC(C=O)NC(=O)C1CC(OCc2ccc(Cl)c(Cl)c2)CN1C(=O)C(NC(=O)C(NC(=O)c1cnccn1)C(C)C)C(C)C (centres unmarked) [Compound 10] (Pyrazinecarbonyl-VV[Hyp](Benzyl(3,4-Cl2))[Abu]-aldehyde; configuration not given here)",1 to 100
9,CCC(C=O)NC(=O)C1CC(OCc2ccccc2-c2ccccc2)CN1C(=O)C(NC(=O)C(NC(=O)c1cnccn1)C(C)C)C(C)C (centres unmarked) [Compound 11] (Pyrazinecarbonyl-VV[Hyp](X11)[Abu]-aldehyde; configuration not given here),1 to 100
10,CCC(C=O)NC(=O)C1CC(OCc2c(C)noc2C)CN1C(=O)C(NC(=O)C(NC(=O)c1cnccn1)C(C)C)C(C)C (centres unmarked) [Compound 12] (Pyrazinecarbonyl-VV[Hyp](X1)[Abu]-aldehyde; configuration not given here),1 to 100
11,CCC(C=O)NC(=O)C1CC(OCc2cc3c(cc2Cl)OCO3)CN1C(=O)C(NC(=O)C(NC(=O)c1cnccn1)C(C)C)C(C)C (centres unmarked) [Compound 13] (Pyrazinecarbonyl-VV[Hyp](X15)[Abu]-aldehyde; configuration not given here),1 to 100
12,CCC(C=O)NC(=O)C1CC(OCc2noc(-c3ccccc3OC)n2)CN1C(=O)C(NC(=O)C(NC(=O)c1cnccn1)C(C)C)C(C)C (centres unmarked) [Compound 14] (Pyrazinecarbonyl-VV[Hyp](X2)[Abu]-aldehyde; configuration not given here),1 to 100
13,CCC(C=O)NC(=O)C1CC(OCc2ccc(C#N)cc2)CN1C(=O)C(NC(=O)C(NC(=O)c1cnccn1)C(C)C)C(C)C (centres unmarked) [Compound 15] (Pyrazinecarbonyl-VV[Hyp](X33)[Abu]-aldehyde; configuration not given here),1 to 100
14,CCC(C=O)NC(=O)C1CC(OCc2cccc(C(F)(F)F)c2)CN1C(=O)C(NC(=O)C(NC(=O)c1cnccn1)C(C)C)C(C)C (centres unmarked) [Compound 16] (Pyrazinecarbonyl-VV[Hyp](X20)[Abu]-aldehyde; configuration not given here),1 to 100
15,CCC(C=O)NC(=O)C1CC(OCc2ccc(C(F)(F)F)cc2)CN1C(=O)C(NC(=O)C(NC(=O)c1cnccn1)C(C)C)C(C)C (centres unmarked) [Compound 17] (Pyrazinecarbonyl-VV[Hyp](X24)[Abu]-aldehyde; configuration not given here),1 to 100
16,CCC(C=O)NC(=O)C1CC(OCc2ccc(OC(F)(F)F)cc2)CN1C(=O)C(NC(=O)C(NC(=O)c1cnccn1)C(C)C)C(C)C (centres unmarked) [Compound 18] (Pyrazinecarbonyl-VV[Hyp](X4)[Abu]-aldehyde; configuration not given here),1 to 100
17,CCC(C=O)NC(=O)C1CC(OCc2ccc3ccccc3c2)CN1C(=O)C(NC(=O)C(NC(=O)c1cnccn1)C(C)C)C(C)C (centres unmarked) [Compound 20] (Pyrazinecarbonyl-VV[Hyp](X10)[Abu]-aldehyde; configuration not given here),1 to 100
18,CCC(C=O)NC(=O)C1CC(OCc2cccc(C#N)c2)CN1C(=O)C(NC(=O)C(NC(=O)c1cnccn1)C(C)C)C(C)C (centres unmarked) [Compound 21] (Pyrazinecarbonyl-VV[Hyp](X22)[Abu]-aldehyde; configuration not given here),1 to 100
19,CCC(C=O)NC(=O)C1CC(OCc2ccc(F)c(F)c2)CN1C(=O)C(NC(=O)C(NC(=O)c1cnccn1)C(C)C)C(C)C (centres unmarked) [Compound 22] (Pyrazinecarbonyl-VV[Hyp](X29)[Abu]-aldehyde; configuration not given here),1 to 100
20,CCC(C=O)NC(=O)C1CC(OCc2csc3ccc(Cl)cc23)CN1C(=O)C(NC(=O)C(NC(=O)c1cnccn1)C(C)C)C(C)C (centres unmarked) [Compound 23] (Pyrazinecarbonyl-VV[Hyp](X31)[Abu]-aldehyde; configuration not given here),1 to 100
21,CCC(C=O)NC(=O)C1CC(OCc2cnc(-c3ccc(Cl)cc3)s2)CN1C(=O)C(NC(=O)C(NC(=O)c1cnccn1)C(C)C)C(C)C (centres unmarked) [Compound 24] (Pyrazinecarbonyl-VV[Hyp](X26)[Abu]-aldehyde; configuration not given here),1 to 100
22,CCC(C=O)NC(=O)C1CC(OCc2cccc3ccccc23)CN1C(=O)C(NC(=O)C(NC(=O)c1cnccn1)C(C)C)C(C)C (centres unmarked) [Compound 26] (Pyrazinecarbonyl-VV[Hyp](CH2(1-naphthyl))[Abu]-aldehyde; configuration not given here),1 to 100
23,CCC(C=O)NC(=O)C1CC(OC(=O)c2ccc(Cl)c(Cl)c2)CN1C(=O)C(NC(=O)C(NC(=O)c1cnccn1)C(C)C)C(C)C (centres unmarked) [Compound 27] (Pyrazinecarbonyl-VV[Hyp](X7)[Abu]-aldehyde; configuration not given here),1 to 100
24,CCC(C=O)NC(=O)C1CC(OC(=O)c2ccccc2)CN1C(=O)C(NC(=O)C(NC(=O)c1cnccn1)C(C)C)C(C)C (centres unmarked) [Compound 28] (Pyrazinecarbonyl-VV[Hyp](Bz)[Abu]-aldehyde; configuration not given here),1 to 100
25,CCC(C=O)NC(=O)C1CC(OC(=O)CC(C)C)CN1C(=O)C(NC(=O)C(NC(=O)c1cnccn1)C(C)C)C(C)C (centres unmarked) [Compound 29] (Pyrazinecarbonyl-VV[Hyp](Isovaleryl)[Abu]-aldehyde; configuration not given here),1 to 100
26,CCC(C=O)NC(=O)C1CC(OC(=O)Nc2ccc(Cl)cc2Cl)CN1C(=O)C(NC(=O)C(NC(=O)c1cnccn1)C(C)C)C(C)C (centres unmarked) [Compound 30] (Pyrazinecarbonyl-VV[Hyp]([CO-X32])[Abu]-aldehyde; configuration not given here),1 to 100
27,CCC(C=O)NC(=O)C1CC(OC(=O)Nc2cccc(Cl)c2Cl)CN1C(=O)C(NC(=O)C(NC(=O)c1cnccn1)C(C)C)C(C)C (centres unmarked) [Compound 31] (Pyrazinecarbonyl-VV[Hyp]([CO-X42])[Abu]-aldehyde; configuration not given here),1 to 100
28,CCC(C=O)NC(=O)C1CC(OC(=O)Nc2cccc(Cl)c2)CN1C(=O)C(NC(=O)C(NC(=O)c1cnccn1)C(C)C)C(C)C (centres unmarked) [Compound 32] (Pyrazinecarbonyl-VV[Hyp]([CO-NH(3-Cl-phenyl)])[Abu]-aldehyde; configuration not given here),1 to 100
29,CCC(C=O)NC(=O)C1CC(OC(=O)Nc2cc(Cl)c(N)c(Cl)c2)CN1C(=O)C(NC(=O)C(NC(=O)c1cnccn1)C(C)C)C(C)C (centres unmarked) [Compound 33] (Pyrazinecarbonyl-VV[Hyp]([CO-X6])[Abu]-aldehyde; configuration not given here),> 100
